Like-named read-outs stand apart in the source and are kept apart here.
Assays:
Type in all cases: biochemical
SLC35B1 [1] = target: T1, SLC35B1 (Homo sapiens, UniProt P78383); test: [α^[…]]ATP uptake competition and counter-exchange, purified protein in PC-liposomes
T1 construct: isoform 1, C-terminal GFP fusion (hSLC35B1-GFP)
T1 sequence (P78383 1-322): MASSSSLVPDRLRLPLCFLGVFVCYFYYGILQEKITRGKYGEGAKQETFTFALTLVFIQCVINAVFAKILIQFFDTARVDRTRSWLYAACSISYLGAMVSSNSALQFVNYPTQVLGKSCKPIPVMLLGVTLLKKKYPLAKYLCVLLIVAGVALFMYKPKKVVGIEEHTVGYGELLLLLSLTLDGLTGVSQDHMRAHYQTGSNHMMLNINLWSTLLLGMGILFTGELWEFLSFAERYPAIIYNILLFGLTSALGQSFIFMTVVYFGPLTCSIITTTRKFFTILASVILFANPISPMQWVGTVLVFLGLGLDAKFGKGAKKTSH

SLC35B1 [2] = target: T1, SLC35B1; test: inhibition of [α^[…]]ATP uptake at […], purified protein in PC-liposomes; conditions: read-out: % inhibition at 1 mM
SLC35B1 [3] = target: T1, SLC35B1; test: inhibition of [α^[…]]ATP uptake at […]; counter-exchange and efflux, purified protein in PC-liposomes; conditions: read-out: % inhibition at 1 mM
SLC35B1 [4] = target: T1, SLC35B1; test: inhibition of [α^[…]]ATP uptake at […]; counter-exchange, purified protein in PC-liposomes; conditions: read-out: % inhibition at 1 mM

SMILES: Nc1nc2c(ncn2[C@@H]2O[C@H](COP(=O)(O)OP(=O)(O)OP(=O)(O)O)[C@@H](O)[C@H]2O)c(=O)[nH]1 [GTP]
- Ki (SLC35B1 [1]; read-out: Ki): 275 µM

SMILES: Nc1ncnc2c1ncn2[C@@H]1O[C@H](COP(=O)(O)OP(=O)(O)OP(O)(O)=S)[C@@H](O)[C@H]1O [ATPɣ[-S]]
- inhibition at 1000 µM (SLC35B1 [2]): > 85%

SMILES: Nc1nc2c(ncn2[C@@H]2O[C@H](COP(=O)(O)OP(=O)(O)O)[C@@H](O)[C@H]2O)c(=O)[nH]1 [GDP]
- inhibition at 1000 µM (SLC35B1 [3]): 50 to 60%

SMILES: O=c1ccn([C@@H]2O[C@H](COP(=O)(O)OP(=O)(O)OP(=O)(O)O)[C@@H](O)[C@H]2O)c(=O)[nH]1 [UTP]
- inhibition at 1000 µM (SLC35B1 [3]): 70 to 85%

SMILES: Nc1ncnc2c1ncn2[C@@H]1O[C@H](COP(=O)(O)OP(=O)(O)O)[C@@H](O)[C@H]1O [ADP]
- Ki (SLC35B1 [1]; read-out: Ki): 56.1 µM

SMILES: Nc1ccn([C@@H]2O[C@H](COP(=O)(O)OP(=O)(O)OP(=O)(O)O)[C@@H](O)[C@H]2O)c(=O)n1 [CTP]
- inhibition at 1000 µM (SLC35B1 [3]): 50 to 60%

SMILES: O=c1ccn([C@@H]2O[C@H](COP(=O)(O)OP(=O)(O)O)[C@@H](O)[C@H]2O)c(=O)[nH]1 [UDP]
- Ki (SLC35B1 [1]): 83 µM

SMILES: Nc1ncnc2c1ncn2[C@H]1C[C@H](O)[C@@H](COP(=O)(O)OP(=O)(O)OP(=O)(O)O)O1 [dATP]
- inhibition at 1000 µM (SLC35B1 [4]): > 85%

Source: publication PMC9010763 (The Journal of Biological Chemistry, 2022)
